Measurements as given in patent US20240245691A1 (Sitryx Therapeutics Limited, priority 2021, published 2024).
Like-named read-outs stand apart in the source and are kept apart here.

Key:
[1] = tested on: IL-1β; assay: THP-1 AlphaLISA IL-1β cytokine assay (differentiated THP-1 cells); type: cell-based
Description: (§1) Measuring Inhibitory Effects on IL-1V Cytokine and IL-6 Output from THP-1s
(§2) The cytokine inhibition profiles of compounds of formula (I) were determined in a differentiated THP-1 cell assay. All assays were performed in RPMI-1640 growth medium (Gibco), supplemented with 10% fetal bovine serum (FBS; Gibco), 1% penicillin-streptomycin and 1% sodium pyruvate unless specified otherwise. The IL-1β and IL-6 cytokine inhibition assays were run in a background of differentiated THP-1 cells as described below. All reagents described were from Sigma-Aldrich unless specified otherwise. Compounds were prepared as 10 mM DMSO stocks.
(§3) THP-1 cells were expanded as a suspension up to 80% confluence in appropriate growth medium. Cells were harvested, suspended, and treated with an appropriate concentration of phorbol 12-myristate 13-acetate (PMA) over a 72 hr period (37° C./5% CO2).
(§4) Following 72 hrs of THP-1 cell incubation, cellular medium was removed and replaced with fresh growth media containing 1% of FBS. Working concentrations of compounds were prepared separately in 10% FBS treated growth medium and pre-incubated with the cells for 30 minutes (37° C./5% CO2). Following the 30 minute compound pre-incubation, THP-1s were treated with an appropriate concentration of LPS and the THP-1s were subsequently incubated for a 24 hr period (37° C./5% CO2). An appropriate final concentration of Nigericin was then dispensed into the THP-1 plates and incubated for 1 hour (37° C./5% CO2) before THP-1 supernatants were harvested and collected in separate polypropylene 96-well holding plates.
(§5) Reagents from each of the IL-1β and IL-6 commercial kits (Perkin Elmer) were prepared and run according to the manufacturer's instructions. Subsequently, fluorescence signal detection in a microplate reader was measured (EnVision® Multilabel Reader, Perkin Elmer).
(§6) Percentage inhibition was calculated per cytokine by normalising the sample data to the high and low controls used within each plate (+/−LPS respectively).
(§7) Dimethyl itaconate and 4-octyl itaconate were included as comparator compounds.

[2] = tested on: IL-6; assay: THP-1 AlphaLISA IL-6 cytokine assay (differentiated THP-1 cells); type: cell-based
Description: as §1, §2, §3, §4, §5, §6, §7

[3] = tested on: cryo-preserved hepatocytes; assay: Hepatocyte stability assay, human; type: in vitro ADME
Source text: (§8) Defrosted cryo-preserved hepatocytes (viability>70%) were used to determine the metabolic stability of a compound via calculation of intrinsic clearance (CIint; a measure of the removal of a compound from the liver in the absence of blood flow and cell binding). Clearance data are particularly important for in vitro work as they can be used in combination with in vivo data to predict the half-life and oral bioavailability of a drug.
(§9) The metabolic stability in hepatocytes assay involved a time-dependent reaction using both positive and negative controls. The cells must be pre-incubated at 37° C. then spiked with test compound (and positive control); samples taken at pre-determined time intervals were analysed to monitor the change in concentration of the initial drug compound over 60 minutes. A buffer incubation reaction (with no hepatocytes present) acted as a negative control and two cocktail solutions, containing compounds with known high and low clearance values (verapamil/7-hydroxycoumarin and propranolol/diltiazem), acted as positive controls. • 1. The assay was run with a cell concentration of 0.5×10^6 cells/mL in Leibovitz buffer. • 2. All compounds and controls were run in duplicate. • 3. Compound concentration was 10 μM. • 4. All compounds and controls were incubated with both cells and buffer to show turnover is due to hepatic metabolism. • 5. All wells on the incubation plate had 326.7 μL of either cells or buffer added. • 6. Prior to assay, cell and buffer-only incubation plates were preincubated for 10 mins at 37° C. • 7. The assay was initiated by adding compounds, 3.3 μL of 1 mM in 10% DMSO-90% Buffer; final DMSO concentration is 0.1%. • 8. Samples were taken at regular timepoints (0, 5, 10, 20, 40, 60 min) until 60 mins. • 9. Sample volume was 40 μL and added to 160 μL of crash solvent (acetonitrile with internal standard) and stored on ice. • 10. At the end of the assay, the crash plates were centrifuged at 3500 rpm for 20 mins at 4° C. • 11. 80 μL of clear supernatant was removed and mixed with 80 μL of deionised water before being analysed by LC-MS/MS.
(§10) Raw LC-MS/MS data were exported to, and analysed in, Microsoft Excel for determination of intrinsic clearance. The percentage remaining of a compound was monitored using the peak area of the initial concentration as 100%. Intrinsic clearance and half-life values were calculated using a graph of the natural log of percentage remaining versus the time of reaction in minutes.
(§11) 4-Octyl itaconate was included as a comparator compound.

[4] = tested on: cryo-preserved hepatocytes; assay: Hepatocyte stability assay, mouse; type: in vitro ADME
Source text: as §8, §9, §10, §11

[5] = Hepatocyte stability assay, human; type: in vitro ADME; details: human, hepatocytes, T½
Source text: as §8, §9, §10, §11

[6] = Hepatocyte stability assay, mouse; type: in vitro ADME; details: mouse, hepatocytes, T½
Source text: as §8, §9, §10, §11

[7] = tested on: NRF2 (nuclear factor erythroid 2-related factor 2); assay: NRF2 +/-GSH activation assay (DiscoverX PathHunter NRF2 translocation kit, U2OS cells); type: cell-based; details: for Emax / EC50: Homo sapiens; for Emax: U2OS; for EC50: U2OS PathHunter cells, 6 hours
[8] = differentiated THP-1 cells, LPS 24 hr then Nigericin 1 hour, read-out: IL-1β (IC50)
[9] = Homo sapiens, THP-1, differentiated THP-1 cells, LPS 24 hr then Nigericin 1 hour, read-out: IL-6 (IC50)
[10] = differentiated THP-1 cells, LPS 24 hr then Nigericin 1 hour, read-out: IL-6 (IC50)
[11] = −GSH, normalised to dimethyl fumarate high control
[12] = Human hepatocytes, 10 μM compound, 60 min
[13] = Mouse hepatocytes, 10 μM compound, 60 min
[14] = Homo sapiens, THP-1, differentiated THP-1 cells, LPS 24 hr then Nigericin 1 hour, read-out: IL-1β (IC50)
[15] = Homo sapiens, THP-1, differentiated THP-1 cells, footnote a: data from repeated experiments, read-out: IL-1β (IC50), data from repeated experiments
[16] = −GSH, normalised to dimethyl fumarate high control, read-out: NRF2 activation Emax, −GSH
[17] = −GSH, read-out: NRF2 activation EC50, −GSH

SMILES: C=C(C(=O)O)C(C)C(=O)NC(C)(C)c1ccc(C(F)(F)F)cc1 (single isomer, unassigned) [Example 53, 3-methyl-2-methylene-4-oxo-4-((2-(4-(trifluoromethyl)phenyl)propan-2-yl)amino)butanoic acid]
- IC50 [1, 8]: 9.3 µM
- IC50 [2, 9]: > 100 µM
- Clint ([3]; human, hepatocytes): <3 μL min^−1 10^−6 cells
- T½ ([3]; human, hepatocytes, 10 μM): >460 min
- Clint ([4]; mouse, hepatocytes): 5 μL min^−1 10^−6 cells
- T½ ([4]; mouse, hepatocytes, 10 μM): 287 min

SMILES: C=C(C(=O)O)C(C)C(=O)NC(C)(C)c1ccc(C(F)(F)F)cc1 (single isomer, unassigned; isomer 1) [Example 52, 3-methyl-2-methylene-4-oxo-4-((2-(4-(trifluoromethyl)phenyl)propan-2-yl)amino)butanoic acid ISOMER 1]
- IC50 [1, 8]: 18.7 µM
- half-life at 10 μM [5]: > 460 min
- Clint ([3]; human, hepatocytes): <3 μL min^−1 10^−6 cells
- half-life at 10 μM [6]: 431 min
- T½ ([4]; mouse, hepatocytes, 10 μM): >460 min

SMILES: C=C(C(=O)O)C(C)C(=O)N[C@@H](C)c1ccc(C(F)(F)F)cc1 (single isomer, unassigned; isomer 2) [Example 55]
- IC50 [1, 8]: 18.9 µM
- IC50 [2, 10]: > 31.6 µM
- Clint ([3]; human, hepatocytes): <3 μL min^−1 10^−6 cells
- T½ ([3]; human, hepatocytes, 10 μM): >460 min
- Clint ([4]; mouse, hepatocytes): 3 μL min^−1 10^−6 cells
- T½ ([4]; mouse, hepatocytes, 10 μM): 457 min

SMILES: C=C(CC(=O)OCCCCCCCC)C(=O)O [4-octyl itaconate, 4-Octyl itaconate, reference compound]
- IC50 [1, 8]: 38.3 µM
- IC50 [2, 10]: 20.3 µM
- NRF2 activation Emax, +GSH ([7]; +GSH, normalised to dimethyl fumarate high control): 148%
- NRF2 activation Emax, −GSH [7, 11]: 165%
- Clint [3, 12]: 401 μL min^−1 10^−6 cells
- T½ [3, 12]: 4 min
- Clint [4, 13]: 351 μL min^−1 10^−6 cells
- T½ [4, 13]: 4 min

SMILES: C=C(CC(=O)NCc1ccc(C(F)(F)F)cc1)C(=O)O [Example 6, 2-methylene-4-oxo-4-((4-(trifluoromethyl)benzyl)amino)butanoic acid]
- IC50 [1, 14]: 25.3 µM
- IC50 [2, 9]: > 100 µM

SMILES: C=C(CC(=O)N[C@@H](CC)c1ccc(C(F)(F)F)cc1)C(=O)O [Example 8, (S)-2-methylene-4-oxo-4-((1-(4-(trifluoromethyl)phenyl)propyl)amino)butanoic acid]
- IC50 [1, 14]: 43.5 µM
- IC50 [2, 9]: > 100 µM

SMILES: C=C(CC(=O)N[C@@H](CO)c1ccc(C(F)(F)F)cc1)C(=O)O [Example 12, (R)-4-((2-hydroxy-1-(4-(trifluoromethyl)phenyl)ethyl)amino)-2-methylene-4-oxobutanoic acid]
- IC50 [1, 14]: 26.6 µM
- IC50 [1, 15]: 35.1 µM
- IC50 [2, 9]: > 100 µM

SMILES: C=C(CC(=O)N[C@@H](C)c1ccc(Cl)cc1)C(=O)O [Example 15, (S)-4-((1-(4-chlorophenyl)ethyl)amino)-2-methylene-4-oxobutanoic acid]
- IC50 [1, 14]: 33.7 µM
- IC50 [1, 15]: 32.6 µM
- IC50 [2, 9]: > 61.1 µM

SMILES: C=C(CC(=O)N[C@@H](C)c1ccc(C(F)F)cc1)C(=O)O [Example 18, (S)-4-((1-(4-(difluoromethyl)phenyl)ethyl)amino)-2-methylene-4-oxobutanoic acid]
- IC50 [1, 14]: 56 µM
- IC50 [2, 9]: > 31.6 µM

SMILES: C=C(CC(=O)NC(c1ccc(C(F)(F)F)cc1)C1CC1)C(=O)O (stereo not shown) [Example 23, 4-((cyclopropyl(4-(trifluoromethyl)phenyl)methyl)amino)-2-methylene-4-oxobutanoic acid]
- IC50 [1, 8]: 13.4 µM
- IC50 [2, 10]: > 100 µM
- Clint ([3]; human, hepatocytes): <3 μL min^−1 10^−6 cells
- T½ ([3]; human, hepatocytes, 10 μM): >460 min
- Clint ([4]; mouse, hepatocytes): 4 μL min^−1 10^−6 cells
- T½ ([4]; mouse, hepatocytes, 10 μM): 355 min

SMILES: C=C(CC(=O)N[C@@H](C)c1ccc(C(F)(F)F)cn1)C(=O)OC1CCN(C(C)=O)CC1 [Example 35, 1-acetylpiperidin-4-yl (S)-2-methylene-4-oxo-4-((1-(5-(trifluoromethyl)pyridin-2-yl)ethyl)amino)butanoate]
- IC50 [1, 14]: 42.7 µM
- IC50 [2, 9]: 11.9 µM

SMILES: C=C(CC(=O)N[C@@H](C)c1ccc(C(F)(F)F)cn1)C(=O)OC1CN(C(C)=O)C1 [Example 36, 1-acetylazetidin-3-yl (S)-2-methylene-4-oxo-4-((1-(5-(trifluoromethyl)pyridin-2-yl)ethyl)amino)butanoate]
- IC50 [1, 14]: 3.9 µM
- IC50 [2, 9]: > 100 µM
- Emax ([7]; +GSH, normalised to dimethyl fumarate high control, read-out: NRF2 activation Emax, +GSH): 25%
- Emax [7, 16]: 65%
- EC50 ([7]; +GSH, read-out: NRF2 activation EC50, +GSH): > 100 µM
- EC50 [7, 17]: 15.9 µM
- half-life at 10 μM [6]: 22 min
- Clint ([4]; mouse, hepatocytes): 61 μL min^−1 10^−6 cells

SMILES: C=C(CC(=O)N[C@@H](C)c1ccc(C(F)(F)F)nc1)C(=O)O [Example 38, (S)-2-methylene-4-oxo-4-((1-(6-(trifluoromethyl)pyridin-3-yl)ethyl)amino) butanoic acid]
- IC50 [1, 14]: 29.6 µM
- IC50 [2, 9]: > 100 µM

SMILES: C=C(C(=O)O)C(C)C(=O)NC(C)(C)c1ccc(C(F)(F)F)cc1 (stereo not shown) [Example 51, 3-methyl-2-methylene-4-oxo-4-((2-(4-(trifluoromethyl)phenyl)propan-2-yl)amino)butanoic acid]
- IC50 ([1]; Homo sapiens, THP-1, read-out: IL-1β (IC50)): 10.2 µM
- IC50 ([2]; Homo sapiens, THP-1, read-out: IL-6 (IC50)): > 100 µM
- half-life at 10 μM [5]: > 460 min
- Clint ([3]; human, hepatocytes): <3 μL min^−1 10^−6 cells

SMILES: C=C(CC(=O)OC)C(=O)OC [dimethyl itaconate, Dimethyl itaconate, reference compound]
- IC50 [1, 14]: > 100 µM
- IC50 [2, 9]: 100 µM
- Emax [7, 16]: 137%
- EC50 [7, 17]: 21.4 µM
- NRF2 activation Emax, −GSH [7, 11]: 137%
